The test system of experiment [1] is MC3T3-E1 cells. The experiment in a line: ALP activity, differentiation of osteoblast cells. The format is cell-based. Conditions: Mus musculus, MC3T3-E1, 144 h; MC3T3E1 cells treated with 10 μM compound and OF; relates activity to OF-only group (100%); higher = more efficacious. The method in brief:
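MC3T3-E1 cells were cultured 6 days at 37 °C in osteogenic medium (ascorbic acid, β-glycerophosphate) with compound at 0.1, 1 and 10 μM; medium and compound were renewed every 2-3 days. Freeze-thaw lysates were protein-normalised and ALP activity was read with 4-nitrophenylphosphate; DMSO and OF-only groups served as comparators.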

The test system of experiment [2] is ovariectomized female SD rats. The experiment in a line: Bone density after ovariectomy, in-vivo micro-CT. Further details: species or system rat. Conditions: oral once a day for 4 weeks. An excerpt: (§1) Most pharmacological effectiveness of therapeutic agents for osteoporosis has been evaluated using an animal, rather than a human. Particularly, as a model animal for osteoporosis occurring after menopause, ovariectomized female rats have been used for its similarity to women after menopause. To examine the effects of the indenone derivatives on the bone resorption, female SD rats and female DDY mice were subjected to ovariectomy. After the rats or mice were anesthetized by abdominally injecting 25 mg/kg of sodium pentobarbital (Choongwae pharma coporation), the fur of the abdominal region was shaved and the operation area was sterilized. About 1.5 cm of abdominal skin, abdominal muscle, and peritoneum were cut in the middle under aseptic condition, and ovary was exposed, followed by removal of both left and right ovaries after ligaturing of oviducts using silk threads. Then, peritoneum, abdominal muscle and skin were sutured with silk threads. The Sham group, animals operated upon for the surgery as in the ovariectomized rats except for removing ovary, was employed to compare the effects. […]

The subject of experiment [3] is ovariectomized female DDY mice. In words: Bone density after ovariectomy, in-vivo micro-CT. Further details: species or system mouse. The following applies: oral once a day for 4 weeks.
Text: as §1

Where a name gives a salt, the structure may show the parent alone.

On to `O=C1C(c2cccnc2)=C(c2ccccc2)c2ccc(OCCN3CCOCC3)cc21` [Example 1, 6-(2-morpholinoethoxy)-3-phenyl-2-(pyridin-3-yl)-1H-inden-1-one hydrochloride salt], for which the activity at 10 µM in experiment [1] is 455%. Moreover, in experiment [2], the “Bone density (FIG. 3B)” value is “significantly increased”. The “Bone density (FIG. 3A)” value in experiment [3] is “significantly increased”.
On to `COc1ccc(C2=C(c3cc(F)cc(F)c3)c3ccc(OCCC4CCN(S(C)(=O)=O)CC4)cc3C2=O)cn1` [Example 100, 3-(3,5-difluorophenyl)-2-(6-methoxypyridin-3-yl)-6-{2-[1-(methylsulfonyl)piperidin-4-yl]ethoxy}-1H-inden-1-one hydrochloride salt], for which, in experiment [1], the activity at 10 µM was determined as 185%.
As for `CS(=O)(=O)N1CCN(CCCOc2ccc3c(c2)C(=O)C(c2cccnc2)=C3c2cc(F)cc(F)c2)CC1` [Example 68, 3-(3,5-difluorophenyl)-6-(3-(4-(methylsulfonyl)piperazin-1-yl)propoxy)-2-(pyridin-3-yl)-1H-inden-1-one hydrochloride salt], the activity at 10 µM in experiment [1] is 164%.
Consider `N#Cc1ccccc1C1=C(c2ccccc2)c2ccc(OCCN3CCOCC3)cc2C1=O` [Example 12, 2-(6-(2-morpholinoethoxy)-1-oxo-3-phenyl-1H-inden-2-yl)benzonitrile], for which, in experiment [1], the activity at 10 µM was found to be 365%.
Regarding `O=C1C(c2cccnc2)=C(c2cc(F)cc(F)c2)c2ccc(OCCN3CCOCC3)cc21` [Example 36, 6-(2-morpholinoethoxy)-3-(3,5-difluorophenyl)-2-(pyridin-3-yl)-1H-inden-1-one hydrochloride salt], the activity at 10 µM in experiment [1] was found to be 224%.
On the same count and under the same terms, the value for `CC(=O)N1CCC(CCOc2ccc3c(c2)C(=O)C(c2cccnc2)=C3c2cc(F)cc(F)c2)CC1` [Example 72, 6-(2-(1-acetylpiperidin-4-yl)ethoxy)-3-(3,5-difluorophenyl)-2-(pyridin-3-yl)-1H-inden-1-one hydrochloride salt] was 58%.
